# Biological target: T1, human OX2R (Homo sapiens, UniProt O43614)
# T1 sequence (O43614 1-444): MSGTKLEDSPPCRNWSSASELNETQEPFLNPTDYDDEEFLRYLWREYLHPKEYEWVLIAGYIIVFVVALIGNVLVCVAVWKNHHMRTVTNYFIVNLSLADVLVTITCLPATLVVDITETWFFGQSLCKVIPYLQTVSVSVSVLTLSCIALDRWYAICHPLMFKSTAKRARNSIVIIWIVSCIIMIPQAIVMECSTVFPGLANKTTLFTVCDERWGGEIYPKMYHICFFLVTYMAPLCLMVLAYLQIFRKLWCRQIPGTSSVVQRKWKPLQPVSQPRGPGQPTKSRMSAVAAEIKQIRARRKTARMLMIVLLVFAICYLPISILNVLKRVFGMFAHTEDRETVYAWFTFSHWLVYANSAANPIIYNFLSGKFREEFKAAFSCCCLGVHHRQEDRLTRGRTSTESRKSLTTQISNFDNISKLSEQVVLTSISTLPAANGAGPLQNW
# Test: IPOne (IP-1) orexin receptor agonist assay in CHO cells expressing human OX2R
# Conditions: CHO, hOX2R IP-One; percentage of mean max effect of a reference compound at 1 uM with 100% activity
# Description: In atypical experiment, the OX1 and OX2 receptor agonist activity is determined in accordance with the following general experimental method. Chinese hamster ovary (CHO) cells expressing human OX1R and/or the human OX2R were grown in Iscove's modified DMEM containing glutaMAX™, 1% G418, 100 U/mL penicillin, 100 μg/mL streptomycin and 10% heat-inactivated qualified fetal bovine serum (FBS). […] During this incubation, IP-one detection reagents were prepared (38:1:1 lysis buffer:D2:AB-cryptate reagents).
# For each compound, data were fit to a four parameter logistic fit (ActivityBase software) and the EC50 was reported as the inflection point of the resulting curve.
row,Emax,Compound
1,101%,"C[C@@H]1C[C@H](NS(C)(=O)=O)C2COC3CCC(CC3)c3cccc(c3)OCCCC(=O)N21 (some centres unmarked) [Example 20, N-((2^1S,2^4S, 5^2R,5^3S,5^5R)-5^5-methyl-6-oxo-3,10-dioxa-5(2,1)-pyrrolidina-1(1,3)-benzena-2(1,4)-cyclohexana-cyclodecaphane-5^3-yl) methanesulfonamide]"
2,100%,"C[C@@H]1C[C@H](NS(C)(=O)=O)C2COC3CCC(CC3)c3ccc(OC(F)(F)F)c(n3)OCCCOC(=O)N21 (some centres unmarked) [Example 73, N-((2^1S,2^4S,5^2R,5^3S,5^5R)-5^5-methyl-6-oxo-1^5-(trifluoromethoxy)-3,7,11-trioxa-1(2,6)-pyridina-5(2,1)-pyrrolidina-2(1,4)-cyclohexanacycloundecaphane-5^3-yl)methanesulfonamide]"
3,102%,"CNC[C@@H]1C[C@H](NS(C)(=O)=O)C2COC3CCC(CC3)c3cc(C(F)F)cc(n3)OCCCOC(=O)N21 (some centres unmarked) [Example 101, N-((2^1S,2^4S,5^2R,5^3S,5^5S)-1^4-(difluoromethyl)-5^5-((methylamino)methyl)-6-oxo-3,7,11-trioxa-1(2,6)-pyridina-5(2,1)-pyrrolidina-2(1,4)-cyclohexanacycloundecaphane-5^3-yl)methanesulfonamide]"
4,102%,"C[C@@H]1C[C@H](NS(C)(=O)=O)C2COC3CCC(CC3)c3cccc(c3F)OCCCOC(=O)N21 (some centres unmarked) [Example 47, N-((2^1S,2^4S, 5^2R,5^3S,5^5R)-1^2-fluoro-5^5-methyl-6-oxo-3,7,11-trioxa-5(2,1)-pyrrolidina-1(1,3)-benzena-2(1,4)-cyclohexana-cyclounde-caphane-5^3-yl)methane-sulfonamide]"
5,102%,"C[C@@H]1C[C@H](NS(C)(=O)=O)[C@@H]2COC3CCC(CC3)c3ccc(F)c(n3)CCCCOC(=O)N12 [Example 110, N-((2^1S,2^4S,5^2R,5^3S,5^5R)-1^5-fluoro-5^5-methyl-6-oxo-3,7-dioxa-1(2,6)-pyridina-5(2,1)-pyrrolidina-2(1,4)-cyclohexanacycloundecaphane-5^3-yl)methanesulfonamide]"
6,100%,"CN(C)C[C@@H]1C[C@H](NS(C)(=O)=O)[C@@H]2CO[C@H]3CC[C@H](CC3)c3nc(ccc3C(F)(F)F)OCCOC(=O)N12 [Example 98, N-((2^1R,2^4R,5^2R,5^3S,5^5S)-5^5-((dimethylamino)methyl)-6-oxo-1^3-(trifluoromethyl)-3,7,10-trioxa-1(2,6)-pyridina-5(2,1)-pyrrolidina-2(1,4)-cyclohexanacyclodecaphane-5^3-yl)methanesulfonamide]"
7,101%,"C[C@@H]1C[C@H](NS(C)(=O)=O)C2COC3CCC(CC3)c3cc(cc(C(F)(F)F)c3)OCCCOC(=O)N21 (some centres unmarked) [Example 49, N-((2^1S,2^4S, 5^2R,5^3S,5^5R)-5^5-methyl-6-oxo-1^5-(trifluoro-methyl)-3,7,11-trioxa-5(2,1)-pyrrolidina-1(1,3)-benzena-2(1,4)-cyclohexana-cyclounde-caphane-5^3-yl)methane-sulfonamide]"
8,102%,"COc1cc2nc(c1)C1CCC(CC1)OCC1[C@@H](NS(=O)(=O)CF)C[C@@H](C)N1C(=O)OCCO2 (some centres unmarked) [Example 104, 1-fluoro-N-((2^1R,2^4R,5^2R,5^3S,5^5R)-1^4-methoxy-5^5-methyl-6-oxo-3,7,10-trioxa-1(2, 6)-pyridina-5(2,1)-pyrro-lidina-2(1,4)-cyclohexana-cyclodecaphane-5^3-yl)methanesulfonamide]"
9,101%,"C[C@@H]1C[C@H](NS(C)(=O)=O)C2COC3CCC(CC3)c3cccc(n3)NCCCOC(=O)N21 (some centres unmarked) [Example 90, N-((2^1S,2^4S,5^2R,5^3S,5^5R)-5^5-methyl-6-oxo-3,7-dioxa-11-aza-1(2,6)-pyridina-5(2,1)-pyrrolidina-2(1,4)-cyclohexanacycloundecaphane-5^3-yl)methanesulfonamide]"
10,101%,"C[C@@H]1C[C@H](NS(C)(=O)=O)C2COC3CCC(CC3)c3cccc(c3)OCCCCC(=O)N21 (some centres unmarked) [Example 19, N-((2^1S,2^4S, 5^2R,5^3S,5^5R)-5^5-methyl-6-oxo-3,11-dioxa-5(2,1)-pyrrolidina-1(1,3)-benzena-2(1,4)-cyclohexana-cyclounde-caphane-5^3-yl) methanesulfonamide]"
11,99.4%,"Cc1ccc2nc1C1CCC(CC1)OCC1[C@@H](NS(C)(=O)=O)C[C@@H](C)N1C(=O)OCCCO2 (some centres unmarked) [Example 80, N-((2^1S,2^4S,5^2R,5^3S,5^5R)-1^3,5^5-dimethyl-6-oxo-3,7,11-trioxa-1(2,6)-pyridina-5(2,1)-pyrrolidina-2(1,4)-cyclohexanacycloundecaphane-5^3-yl)methanesulfonamide]"
12,102%,"C[C@@H]1C[C@H](NS(C)(=O)=O)C2CO[C@H]3CC=C(CC3)c3cc(F)cc(c3)OCCCCC(=O)N21 (some centres unmarked) [Example 43, N-((2^1S,2^4S, 5^2R,5^3S,5^5R)-1^5-fluoro-5^5-methyl-6-oxo-3,11-dioxa-5(2,1)-pyrrolidina-1(1,3)-benzena-2(1,4)-cyclohexana-cyclounde-caphan-2^1-en-5^3-yl)methane-sulfonamide]"
13,98.4%,"CS(=O)(=O)N[C@H]1C[C@@H](CO)N2C(=O)OCCCOc3cc(C(F)F)cc(n3)C3CCC(CC3)OCC12 (some centres unmarked) [Example 97, N-((2^1S,2^4S,5^2R,5^3S,5^5S)-1^4-(difluoromethyl)-5^5-(hydroxymethyl)-6-oxo-3,7,11-trioxa-1(2,6)-pyridina-5(2,1)-pyrrolidina-2(1,4)-cyclohexanacycloundecaphane-5^3-yl)methanesulfonamide]"
14,101%,"C[C@@H]1C[C@H](NS(=O)(=O)N(C)C)[C@@H]2COC3CCC(CC3)c3cccc(c3)OCCCCC(=O)N12 [Example 10, N′-((2^1S,2^4S,5^2R,5^3S, 5^5R)-5^5-methyl-6-oxo-3,11-dioxa-5(2,1)-pyrrolidina-1(1,3)-benzena-2(1,4)-cyclohexanacycloundecaphane-5^3-yl)-N,N-dimethyl-sulfamide]"
15,99.2%,"CS(=O)(=O)N[C@H]1CCCN2C(=O)CCCCOc3ccccc3[C@H]3CC[C@H](CC3)OC[C@@H]12 [Example 24, N-((2^1S,2^4S,5^2R,5^3S)-6-oxo-3,1′-dioxa-5(2,1)-piperidina-1(1,2)-benzena-2(1,4)-cyclohexanacycloundecaphane-5^3-yl)methanesulfonamide]"
16,100%,"CS(=O)(=O)N[C@H]1C[C@@H](CC(N)=O)N2C(=O)OCCOc3ccc(C(F)(F)F)c(n3)C3CCC(CC3)OCC12 (some centres unmarked) [Example 99, 2-((2^1R,2^4R,5^2R,5^3S,5^5S)-5^3-(methylsulfonamido)-6-oxo-1^3-(trifluoromethyl)-3,7,10-trioxa-1(2,6)-pyridina-5(2,1)-pyrrolidina-2(1,4)-cyclohexanacyclodecaphane-5^5-yl)acetamide]"
17,102%,"COc1cc2nc(c1)C1CCC(CC1)OCC1[C@@H](NS(C)(=O)=O)C[C@@H](C)N1C(=O)OCCCO2 (some centres unmarked) [Example 71, N-((2^1S,2^4S,5^2R,5^3S,5^5R)-1^4-methoxy-5^5-methyl-6-oxo-3,7,11-trioxa-1(2,6)-pyridina-5(2,1)-pyrrolidina-2(1,4)-cyclohexanacycloundecaphane-5^3-yl)methanesulfonamide]"
18,101%,"C[C@@H]1C[C@H](NS(C)(=O)=O)C2COC3CCC(CC3)c3cc(ccc3OC(F)(F)F)OCCCOC(=O)N21 (some centres unmarked) [Example 50, N-((2^1S,2^4S, 5^2R,5^3S,5^5R)-5^5-methyl-6-oxo-1^6-(trifluoro-methoxy)-3,7,11-trioxa-5(2,1)-pyrrolidina-1(1,3)-benzena-2(1,4)-cyclohexana-cyclounde-caphane-5^3-yl)methane-sulfonamide]"
19,96.9%,"C[C@@H]1C[C@H](NS(C)(=O)=O)C2COC3CCC(CC3)c3nc(ccc3OC(F)(F)F)OCCCOC(=O)N21 (some centres unmarked) [Example 59, N-((2^1S,2^4S,5^2R,5^3S,5^5R)-5^5-methyl-6-oxo-1^3-(trifluoromethoxy)-3,7,11-trioxa-1(2,6)-pyridina-5(2,1)-pyrrolidina-2(1,4)-cyclohexanacycloundecaphane-5^3-yl)methanesulfonamide]"

# Same assay, conditions: hOX2R IP-One; percentage of mean max effect of a reference compound at 1 uM with 100% activity
row,Emax (%),Compound
1,71.6%,"CN(C)S(=O)(=O)NC1CCCN2C(=O)OCCc3ccccc3C3CCC(CC3)OCC12 (single isomer, unassigned) [Example 40, N′-((2^1S,2^4S,5^2R,5^3S)-6-oxo-3,7-dioxa-5(2,1)-piperidina-1(1,2)-benzena-2(1,4)-cyclohexanacyclononaphane-5^3-yl)-N,N-dimethyl-sulfamide]"
2,102.4%,"CC1CC(NS(C)(=O)=O)C2COC3CCC(CC3)c3cc(C(F)(F)F)cc(n3)CCCCOC(=O)N12 (centres unmarked) [Example 109, N-((2^1S,2^4S,5^2R,5^3S,5^5R)-5^5-methyl-6-oxo-14-(trifluoromethyl)-3,7-dioxa-1(2,6)-pyridina-5(2,1)-pyrrolidina-2(1,4)-cyclohexanacycloundecaphane-5^3-yl)methanesulfonamide]"
3,103.0%,"CCS(=O)(=O)NC1CC(C)N2C(=O)OCCOc3cc(OC)cc(n3)C3CCC(CC3)OCC12 (centres unmarked) [Example 103, N-((2^1R,2^4R,5^2R,5^3S,5^5R)-1^4-methoxy-5^5-methyl-6-oxo-3,7,10-trioxa-1(2,6)-pyridina-5(2,1)-pyrrolidina-2(1,4)-cyclohexanacyclodecaphane-5^3-yl)ethanesulfonamide]"

row,Compound,Emax (%)
1,"N′-((2^1S,2^4S,5^2R,5^3S)-6-oxo-3,7-dioxa-5(2,1)-piperidina-1(1,2)-benzena-2(1,4)-cyclohexanacyclononaphane-5^3-yl)-N,N-dimethyl-sulfamide [Example 37]",5.8%
